Here are results for four molecules from patent US20230310537A1, “TREATMENT OF VASCULAR EHLERS-DANLOS SYNDROME AND RELATED SYNDROMES” (The Johns Hopkins University, priority 2020, published 2023).

The subject of one experiment is BL6 Col3a1^G938D/+ mice. The experiment is described as follows: Kaplan-Meier survival / vascular rupture of drug-treated BL6 vEDS mice. Particulars: for elevated risk of rupture caused by the p38 inhibitor, under concomitant treatment (Kaplan-Meier survival): BL6 Col3a1^G938D/+ mice receiving SB203580 IP plus test drug (cobimetinib via drinking water, ruboxistaurin via chow) from weaning for 30 days, vs SB203580 alone. It counts as in vivo. The text has this: Mice were maintained either on a C57BL/6J background (#000664, The Jackson Laboratory) or on a 129S6/SvEvTac background (#129SVE, Taconic Biosciences). Mice were considered to be 129S6/SvEvTac after backcrossing for a minimum of 4 generations. F1 and mixed mice were generated by interbreeding pure C57BL/6J and 129S6/SvEvTac mice. To identify the dominant genetic locus, mixed background wild-type females were bred to Col3a1^G938D/+ male mice on a pure BL6 background. Mice haploinsufficient or knockout for Map2k6 were originally obtained from the Jackson Laboratory (#008382) and backcrossed in the lab for a minimum of 10 generations. Restriction enzymes were used to detect the presence or absence of the Col3a1 mutation. The G209S mutation leads to the loss of an AvaII cut site and the G938D mutation leads to the gain of a BamHI cut site (AvaII R0153L; BamHI-HF R3136S, New England Biolabs). All mice found dead were assessed for cause of death by necropsy, noting in particular hemothorax and hemoperitoneum.
For drug trials in the Col3a1/^G938D/+ mice, mice were initiated on medication at weaning and continued until the end of the trial. Cobimetinib (GDC-0973/R0551404, Active Biochem) was dissolved in drinking water and filtered to reach a final concentration of 0.02 g/L giving an estimated dose of 2 mg/kg/day. Ruboxistaurin (LY333531 HCl, Selleck Chemicals) was mixed with powdered food (LabDiet) to give a concentration of 0.1 mg/g giving an estimated dose of 8 mg/kg/day. SB203580 (Selleck Chemicals) was administered at a dose of 5 mg/kg/d every 3 days by intraperitoneal injection. Animals receiving placebo (5% Tween in PBS) were also injected every 3 days by intraperitoneal injection.
Kaplan-Meier survival curves were compared using a log-rank (Mantel-Cox) test. Mice were censored only if unrelated to the outcome, such as for planned biochemical or histologic analysis or if the authors were directed to euthanize them by animal care staff, for malocclusion, fight wounds, or genital prolapse.

The subject of experiment [1] is severe (Col3a1 G938D/+) and mild (Col3a1^G209S/+) mouse models of vEDS. Particulars: either vEDS mouse model; interventions that inhibit PKC/ERK activation; cited from earlier work.
The next experiment has as its system pPKCβ. The experiment is described as follows: Western blot of pPKCβ in proximal descending aortas of treated vEDS mice. The format is in vivo. Particulars: aortas of Col3a1^G938D/+ mice, SB203580 treated vs placebo treated; p<0.01. As for the experimental part:
(§1) Protein was extracted using an automatic bead homogenizer in conjunction with a Protein Extraction Kit (Full Moon Biosystems). All protein lysis buffers contained both PhosSTOP and Complete™, Mini, EDTA-free Protease Inhibitor Cocktail (Roche). Western blotting was performed using LI-COR buffer and species appropriate secondary antibodies conjugated to IR-dye700 or IRdye-800 (LI-COR Biosciences), according to the manufacturer's guidelines and analyzed using LI-COR Odyssey. The following primary antibodies were used: anti-β-Actin (8H10D10) (Cell Signaling Technology, 3700), anti-phospho ERK1/2 (Cell Signaling Technology, 4370), anti-PKCβ (phospho 5660) (Abcam, 75837), anti-phospho p38 (Cell Signaling Technology, 4511).
(§2) For drug trials in the Col3a1/^G938D/+ mice, mice were initiated on medication at weaning and continued until the end of the trial. Cobimetinib (GDC-0973/R0551404, Active Biochem) was dissolved in drinking water and filtered to reach a final concentration of 0.02 g/L giving an estimated dose of 2 mg/kg/day. Ruboxistaurin (LY333531 HCl, Selleck Chemicals) was mixed with powdered food (LabDiet) to give a concentration of 0.1 mg/g giving an estimated dose of 8 mg/kg/day. SB203580 (Selleck Chemicals) was administered at a dose of 5 mg/kg/d every 3 days by intraperitoneal injection. […]
In general terms: Immunoblotting shows a protein as a band on a membrane.

The next experiment deals with pERK1/2. The experiment is described as follows: Western blot of pERK1/2 in proximal descending aortas of treated vEDS mice. The format is in vivo. The conditions noted are these: aortas of Col3a1^G938D/+ mice, SB203580 treated vs placebo treated; p<0.01. As for the experimental part: as §1, §2
The subject of another experiment is MFS mice. The conditions noted are these: therapies that attenuate TGF-β signaling and related pathways; cited from earlier work.

Entries after “also recorded” stand apart in the source; their conditions may differ.

For `O=C(c1ccc(F)c(F)c1Nc1ccc(I)cc1F)N1CC(O)([C@@H]2CCCCN2)C1` [cobimetinib], the “elevated risk of rupture caused by the p38 inhibitor, under concomitant treatment (Kaplan-Meier survival)” value in the experiment with BL6 Col3a1^G938D/+ mice is on record as “rescued”. The “aortic disease rupture risk” value in experiment [1] was “rescue aortic disease rupture risk”.
Take `C[S+]([O-])c1ccc(-c2nc(-c3ccncc3)c(-c3ccc(F)cc3)[nH]2)cc1` (centres unmarked) [SB203580]: the “rate of death / vascular rupture risk (Kaplan-Meier survival vs placebo)” value in the experiment on BL6 Col3a1^G938D/+ mice (BL6 Col3a1^G938D/+ mice, IP injection every 3 days starting at weaning, continuing for 40 days, Log-Rank p<0.01) is reported as “significantly increased the rate of death; also recorded: increases vascular rupture risk”. In addition, the “PKC activation (pPKCβ levels normalized to β-actin)” value with pPKCβ was “increase”. Moreover, in the experiment with pERK1/2, the “ERK activation (pERK1/2 levels normalized to β-actin)” value was “increase”.
`CN(C)C[C@@H]1CCn2cc(c3ccccc32)C2=C(C(=O)NC2=O)c2cn(c3ccccc23)CCO1` [ruboxistaurin]: the “elevated risk of rupture caused by the p38 inhibitor, under concomitant treatment (Kaplan-Meier survival)” value in the experiment with BL6 Col3a1^G938D/+ mice is listed as “rescued”. Moreover, the “aortic disease rupture risk” value in experiment [1] is listed as “rescue aortic disease rupture risk”.
Take `CCCCc1nc(Cl)c(CO)n1Cc1ccc(-c2ccccc2-c2nn[nH]n2)cc1` [losartan]: the aortic disease result with MFS mice is “suppress aortic disease”.
